Measured values from ChEMBL document CHEMBL1143248, “Adenosine analogues as inhibitors of P2Y12 receptor mediated platelet aggregation” (Bioorg Med Chem Lett, 2008).

target: not listed separately; experiment: Antagonist activity at P2Y12 receptor assessed as platelet aggregation by washed platelet assay

`CCNC(=O)Nc1ncnc2c1ncn2[C@@H]1O[C@H](COP(=O)(O)O)[C@H]2O[C@H](/C=C/c3ccccc3)O[C@H]21` [REGRELOR DISODIUM] gave an IC50 of 16 nM.

target: P2Y purinoceptor 12 (Homo sapiens) (UniProt Q9H244); experiment: Antagonist activity at P2Y12 receptor assessed as platelet aggregation at 30 uM by washed platelet assay; assay type: functional
Sequence (Q9H244 whole entry): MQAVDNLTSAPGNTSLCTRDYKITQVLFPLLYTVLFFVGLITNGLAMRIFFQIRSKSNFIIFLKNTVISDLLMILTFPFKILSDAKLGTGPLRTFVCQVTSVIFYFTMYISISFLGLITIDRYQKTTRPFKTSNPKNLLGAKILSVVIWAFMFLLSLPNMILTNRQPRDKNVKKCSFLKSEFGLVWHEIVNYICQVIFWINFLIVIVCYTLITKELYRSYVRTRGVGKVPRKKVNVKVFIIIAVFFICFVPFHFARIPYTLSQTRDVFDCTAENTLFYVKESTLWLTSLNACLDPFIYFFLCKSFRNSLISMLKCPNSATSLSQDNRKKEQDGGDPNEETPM

First: CCNC(=O)Nc1ncnc2c1ncn2[C@@H]1O[C@H](CSCCCS(=O)(=O)O)[C@H]2O[C@H](/C=C/c3ccccc3)O[C@H]21
Second: CCNC(=O)Nc1ncnc2c1ncn2[C@@H]1O[C@H](CSCCO)[C@H]2O[C@H](/C=C/c3ccccc3)O[C@H]21
The inhibition of the first is higher: 90% for the first, 63% for the second.

Compared with `CCNC(=O)Nc1ncnc2c1ncn2[C@@H]1O[C@H](CNCc2nccs2)[C@H]2O[C@H](/C=C/c3ccccc3)O[C@H]21`, `CCNC(=O)Nc1ncnc2c1ncn2[C@@H]1O[C@H](CNCc2ccccc2O)[C@H]2O[C@H](/C=C/c3ccccc3)O[C@H]21` is lower in inhibition: 73% for the first, 70% for the second.

First: CCCSC[C@H]1O[C@@H](n2cnc3c(NC(=O)NCC)ncnc32)[C@@H]2O[C@@H](/C=C/c3ccccc3)O[C@@H]21
Second: CCNC(=O)Nc1ncnc2c1ncn2[C@@H]1O[C@H](CSC)[C@H]2O[C@H](/C=C/c3ccccc3)O[C@H]21
The inhibition of the first is lower: 52% for the first, 63% for the second.

First: CCNC(=O)Nc1ncnc2c1ncn2[C@@H]1O[C@H](CS(=O)(=O)CCO)[C@H]2O[C@H](/C=C/c3ccccc3)O[C@H]21
Second: CCCS(=O)(=O)C[C@H]1O[C@@H](n2cnc3c(NC(=O)NCC)ncnc32)[C@@H]2O[C@@H](/C=C/c3ccccc3)O[C@@H]21
The inhibition of the first is lower: 57% for the first, 65% for the second.

First: CCNC(=O)Nc1ncnc2c1ncn2[C@@H]1O[C@H](CN(CC2CC2C(=O)OCC)CC2CC2C(=O)OCC)[C@H]2O[C@H](/C=C/c3ccccc3)O[C@H]21 (stereo not given in full)
Second: CCNC(=O)Nc1ncnc2c1ncn2[C@@H]1O[C@H](CNC/C(C)=C/C(=O)OCC)[C@H]2O[C@H](/C=C/c3ccccc3)O[C@H]21
The inhibition of the first is lower: 46% for the first, 70% for the second.

First: CCNC(=O)Nc1ncnc2c1ncn2[C@@H]1O[C@H](CNC(=O)c2[nH]c(C)c(C(C)=O)c2C)[C@H]2O[C@H](/C=C/c3ccccc3)O[C@H]21
Second: CCNC(=O)Nc1ncnc2c1ncn2[C@@H]1O[C@H](CSCC(C)O)[C@H]2O[C@H](/C=C/c3ccccc3)O[C@H]21 (stereo not given in full)
The inhibition of the first is lower: 53% for the first, 76% for the second.

Going from `CCCCCCCSC[C@H]1O[C@@H](n2cnc3c(NC(=O)NCC)ncnc32)[C@@H]2O[C@@H](/C=C/c3ccccc3)O[C@@H]21` to `CCNC(=O)Nc1ncnc2c1ncn2[C@@H]1O[C@H](CS(=O)(=O)CC(O)CO)[C@H]2O[C@H](/C=C/c3ccccc3)O[C@H]21` (stereo not given in full), the inhibition falls from 38% to 14%.
